What all share (experiment): NCI anticancer screen, dose series, 48 h
Experiment [1] concerns M14 melanoma.
The test system of experiment [2] is KM12 colon.
Experiment [3] has as its system UO-31 renal.
The subject of experiment [4] is OVCAR-8 ovarian.
The test system of experiment [5] is DU-145 prostate.
Experiment [6] relates to SNB-19 CNS.
For experiment [7], the system named is LOX IMVI melanoma.
Experiment [8] concerns ACHN renal.
For experiment [9], the system named is UACC-257 melanoma.
Experiment [10] has as its system SK-MEL-2 melanoma.

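48-hour exposure; five concentrations; linearly interpolated endpoints. GI50 marks 50% less growth. TGI is the concentration that stops growth completely.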 Bounds are passed on as bounds.

As to `CCC(CNc1cc(OC)cc2cccnc12)NC1CCCCC1` (configuration not stated), the GI50 in [1] was 17.1 µM; in [2] it was 27.6 µM; in [3], 4.47 µM; in [4], 51.1 µM; in experiment [5], 35.5 µM; in [6], 89.7 µM. The figures for the GI50 in [7], in experiment [8] and in experiment [9] were 28.6 µM, 49.7 µM and 41.1 µM, respectively. Further, the TGI in [1] is 33.5 µM; in [2], more than 100 µM; in [3] it was more than 100 µM; in experiment [4], more than 100 µM; in experiment [5] it was more than 100 µM; in [6], more than 100 µM. The TGI in experiment [7], in experiment [8] and in experiment [9] was more than 100 µM in each case.

On to `CN(C)C=C1C(Cl)=C(C=O)CC(C=O)=C1Cl`, for which the TGI in experiment [1] was determined as 26.7 µM; in experiment [2] it was 22.1 µM; in [3], 35.1 µM; in experiment [4], 12.6 µM; in experiment [6], 27.3 µM; in experiment [7] it was 6.07 µM. Moreover, the TGI was determined as 26.4 µM in experiment [8], 30.8 µM in [9] and 36.9 µM in experiment [10].

On to `COC(=O)c1cc(O)c2c(c1C(=O)OC)C[C@H]1[C@@H]3CC=C4C[C@@H](O)CC[C@]4(C)[C@H]3CC[C@]21C`, for which the GI50 in experiment [1] was 3.47 µM; in experiment [2] it was 2.91 µM; in [3] it was 2.18 µM; in experiment [4], 3.33 µM; in experiment [5], 3.89 µM; in experiment [6] it was 4.1 µM. The GI50 is 3.64 µM in [8], 2.54 µM in experiment [9] and 2.79 µM in experiment [10]. For the same compound, the TGI was 18.7 µM in experiment [1]; 12.2 µM in [2]; 4.26 µM in experiment [3]; 16.9 µM in experiment [4]; 16.1 µM in experiment [5]; 23.8 µM in experiment [6]. The TGI in experiment [8] was found to be 17 µM; in [9], 7.5 µM; in experiment [10], 5.6 µM.

`CCc1cccc(CC)c1NC(=O)C1=C(C)NC(C)=C(C(=O)Nc2c(CC)cccc2CC)C1c1ccc([N+](=O)[O-])cc1`: the TGI in experiment [1] was 42.5 µM; in [2] it was 48.8 µM; in experiment [3], more than 100 µM; in experiment [4] it was 64.3 µM; in [6], more than 100 µM; in [7], more than 100 µM. For the same compound, the TGI in experiment [8] was more than 100 µM; in experiment [9] it was 53.1 µM; in [10], 65.3 µM.

Consider `CCCCCCCCCCCCCCCCCC(=O)OCC(COC(=O)CCCN)OC(=O)CCCN` (configuration not stated), for which the TGI worked out at 31.4 µM in experiment [1]; 33.5 µM in experiment [2]; 3.63 µM in experiment [3]; 37.1 µM in [4]; 33.7 µM in experiment [5]; 48 µM in [6]. Also, the TGI is 42.5 µM in experiment [7], more than 100 µM in experiment [8] and 34.4 µM in [9].

With `Cc1cc(Cl)ccc1NC(=O)C(=O)C(C(=O)c1ccc2ccccc2c1)C1OC(=O)c2ccccc21` (configuration not stated), the TGI in [1] is 34.3 µM; in experiment [2], 52.3 µM; in experiment [3] it was 31.5 µM; in experiment [4], more than 100 µM; in experiment [6] it was 18.3 µM; in experiment [7], 32.2 µM. Also, the TGI in [8] is more than 100 µM; in [9], 47.8 µM; in experiment [10], 27.3 µM.

As to `COc1ccc2c(c1)CC[C@H](O)/C2=C/c1cc(OC)c(OC)c(OC)c1`, the GI50 in experiment [1] is 0.101 µM; in [2], 0.093 µM; in experiment [3], 0.222 µM; in experiment [4] it was 0.36 µM; in [5], 0.156 µM; in [6] it was 0.201 µM. Also, the GI50 was 0.207 µM in experiment [7], 0.227 µM in experiment [8] and 17.8 µM in experiment [10]. In addition, the TGI in experiment [1], in experiment [2], in experiment [3], in experiment [4], in experiment [5] and in experiment [6] was more than 100 µM each time. Also, the TGI in experiment [7], in experiment [8] and in experiment [10] was more than 100 µM throughout.

With `COc1ccc2nc3cc([N+](=O)[O-])ccc3c(NCCCN(C)C)c2c1`, the GI50 is 0.176 µM in [1]; 1.63 µM in experiment [3]; 0.0895 µM in experiment [4]; 0.175 µM in [5]; 0.299 µM in experiment [6]; 0.249 µM in experiment [7]. Further, the GI50 in experiment [8] is 0.418 µM; in experiment [9], 1.71 µM. The TGI in [1] was 0.412 µM; in [3], 6.1 µM; in experiment [4], 1.59 µM; in experiment [5], 11.9 µM; in experiment [6], 2.61 µM; in [7] it was 1.08 µM. The TGI in experiment [8] worked out at 3.09 µM; in experiment [9], 4.41 µM.

`O=[N+]([O-])CCc1cccc([N+](=O)[O-])c1`: the TGI in experiment [1], in experiment [2], in experiment [3], in experiment [4], in [6] and in [7] was more than 100 µM throughout. The TGI in experiment [8], in experiment [9] and in experiment [10] was more than 100 µM each time.

As to `Cc1cc(N(CCC#N)S(C)(=O)=O)ccc1C=Nc1ccc(C(=O)NN2C(=O)/C(=C/c3ccc(N(CCC#N)CCC#N)cc3C)N=C2c2cc([N+](=O)[O-])ccc2Cl)cc1`, the TGI in experiment [1], in [2], in [3], in [4], in experiment [6] and in experiment [7] was more than 100 µM each time. In addition, the TGI in experiment [8], in [9] and in experiment [10] was more than 100 µM in each case.

`Cn1c2ccc(Br)cc2c2c3c(c4c5ccccc5[nH]c4c21)C(=O)N(O)C3=O`: the GI50 was 0.0877 µM in [1]; 0.237 µM in experiment [2]; 0.0917 µM in experiment [3]; 0.149 µM in [4]; 0.0871 µM in experiment [5]; 0.0777 µM in experiment [6]. For the same compound, the GI50 is 0.0537 µM in [7], 0.0448 µM in experiment [8] and 0.226 µM in experiment [10]. Besides, the TGI in experiment [1] stood at 0.307 µM; in experiment [2] it was 0.902 µM; in experiment [3], 0.308 µM; in experiment [4], 0.683 µM; in [5], 0.57 µM; in experiment [6], 0.696 µM. In addition, the TGI in [7] came out at 0.193 µM; in experiment [8], 0.244 µM; in experiment [10], 0.469 µM.

The record behind these values is PubChem BioAssay (NCI).
